pEC50, pIC50: −log10 of the molar value. Calls of active or inactive are those of the source. No cut-off for these calls is given here.
Tests used:
[1] = target: T1, Rap guanine nucleotide exchange factor 3 (Homo sapiens) (UniProt O95398); experiment: Activation of EPAC1 in HUVEC assessed as reduction in IL-6-promoted signaling by measuring pAKT protein levels at 100 uM pre-incubated for 30 mins before IL6 and sIL6Ralpha stimulation for 5 hrs by Western blotting analysis; format: cell-based
T1 sequence (whole entry): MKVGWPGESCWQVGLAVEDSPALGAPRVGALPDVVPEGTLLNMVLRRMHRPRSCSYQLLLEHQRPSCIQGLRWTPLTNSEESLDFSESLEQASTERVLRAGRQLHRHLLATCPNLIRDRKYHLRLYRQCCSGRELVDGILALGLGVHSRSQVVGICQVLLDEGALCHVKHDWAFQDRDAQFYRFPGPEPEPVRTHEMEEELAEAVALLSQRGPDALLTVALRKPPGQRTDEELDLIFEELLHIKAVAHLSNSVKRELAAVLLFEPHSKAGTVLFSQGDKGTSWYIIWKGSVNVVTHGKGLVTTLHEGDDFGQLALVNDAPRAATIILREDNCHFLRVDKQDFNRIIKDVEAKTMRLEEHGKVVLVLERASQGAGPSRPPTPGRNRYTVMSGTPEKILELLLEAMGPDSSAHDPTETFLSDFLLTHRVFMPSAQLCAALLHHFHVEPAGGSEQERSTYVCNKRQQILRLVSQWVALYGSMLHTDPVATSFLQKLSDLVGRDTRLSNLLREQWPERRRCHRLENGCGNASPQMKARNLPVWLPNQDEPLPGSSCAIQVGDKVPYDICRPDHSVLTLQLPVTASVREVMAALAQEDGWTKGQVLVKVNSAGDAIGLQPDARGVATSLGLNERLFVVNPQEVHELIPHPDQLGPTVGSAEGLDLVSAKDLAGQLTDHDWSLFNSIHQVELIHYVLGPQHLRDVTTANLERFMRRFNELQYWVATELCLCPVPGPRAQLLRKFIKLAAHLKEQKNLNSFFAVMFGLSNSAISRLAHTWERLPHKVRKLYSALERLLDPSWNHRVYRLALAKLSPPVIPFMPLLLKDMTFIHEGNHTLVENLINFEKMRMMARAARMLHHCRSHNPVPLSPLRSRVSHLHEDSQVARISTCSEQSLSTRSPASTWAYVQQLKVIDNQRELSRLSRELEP

[2] = target: T1, Rap guanine nucleotide exchange factor 3 (Homo sapiens); experiment: Activation of EPAC1 in HUVEC assessed as reduction in IL-6-promoted signaling by measuring pSTAT3 protein levels at 100 uM pre-incubated for 30 mins before IL6 and sIL6Ralpha stimulation for 5 hrs by Western blotting analysis; format: cell-based
[3] = target: T1, Rap guanine nucleotide exchange factor 3 (Homo sapiens); experiment: Activation of EPAC1 in HUVEC assessed as reduction in IL-6-promoted signaling by measuring ICAM1 protein expression at 100 uM pre-incubated for 30 mins before IL6 and sIL6Ralpha stimulation for 5 hrs by Western blotting analysis; format: cell-based
[4] = target: T1, Rap guanine nucleotide exchange factor 3 (Homo sapiens); experiment: Activation of recombinant EPAC1 (149 to 881 residues) (unknown origin) assessed as stimulation of dissociation of fluorescent MANT-GDP from recombinant Rap1b at 500 uM in presence of excess nonfluorescent nucleotides by fluorescence based in-vitro GEF assay relative to cAMP
[5] = target: T1, Rap guanine nucleotide exchange factor 3 (Homo sapiens); experiment: Activation of EPAC1 (unknown origin) expressed in U2OS cells at 100 uM incubated for 10 mins using GST-RalGDS-RBD by Western blot analysis based active GTP-bound Rap1 pull down assay; format: cell-based
[6] = target: T1, Rap guanine nucleotide exchange factor 3 (Homo sapiens); experiment: Activation of EPAC1 (unknown origin) expressed in U2OS cells at 100 uM pre-incubated for 10 mins before 8-pCPT-2'-O-Me-cAMP stimulation for 10 mins using GST-RalGDS-RBD by Western blot analysis based active GTP-bound Rap1 pull down assay; format: cell-based
[7] = target: T1, Rap guanine nucleotide exchange factor 3 (Homo sapiens); experiment: Activation of EPAC1 in HUVEC assessed as reduction in IL-6-promoted signaling by measuring VCAM1 protein expression at 100 uM pre-incubated for 30 mins before IL6 and sIL6Ralpha stimulation for 5 hrs by Western blotting analysis; format: cell-based
[8] = target: T1, Rap guanine nucleotide exchange factor 3 (Homo sapiens); experiment: Activation of EPAC1 in HUVEC assessed as reduction in IL-6-promoted signaling by measuring pERK protein levels at 100 uM pre-incubated for 30 mins before IL6 and sIL6Ralpha stimulation for 5 hrs by Western blotting analysis; format: cell-based
[9] = Binding affinity to GST-tagged recombinant EPAC1 delta-DEP mutant (149 to 881 residues) (unknown origin) expressed in Escherichia coli BL21 Star (DE3) incubated for 4 hrs by 8-NBD-cAMP competition binding assay; parameters: species or system Homo sapiens
[10] = target: T2, Rap guanine nucleotide exchange factor 3 (Homo sapiens, UniProt O95398); experiment: Activation of recombinant EPAC1 (149 to 881 residues) (unknown origin) assessed as stimulation of dissociation of fluorescent MANT-GDP from recombinant Rap1b in presence of excess nonfluorescent nucleotides by fluorescence based in-vitro GEF assay
T2 sequence (O95398 whole entry): T1 sequence (whole entry)

[11] = target: T1, Rap guanine nucleotide exchange factor 3 (Homo sapiens); experiment: Binding affinity to GST-tagged recombinant EPAC1 CNBD (169 to 318 residues) (unknown origin) expressed in Escherichia coli BL21 Star (DE3) assessed as relative fluorescence intensity incubated for 4 hrs by 8-NBD-cAMP competition binding assay relative to control; parameters: concentration or dose not given beside the values
[12] = target: T1, Rap guanine nucleotide exchange factor 3 (Homo sapiens); experiment: Activation of recombinant EPAC1 (149 to 881 residues) (unknown origin) assessed as stimulation of dissociation of fluorescent MANT-GDP from recombinant Rap1b at 10 uM in presence of excess nonfluorescent nucleotides by fluorescence based in-vitro GEF assay relative to cAMP
[13] = target: T1, Rap guanine nucleotide exchange factor 3 (Homo sapiens); experiment: Activity at recombinant EPAC1 (149 to 881 residues) (unknown origin) assessed as reduction in cAMP-induced stimulation of dissociation of fluorescent MANT-GDP from recombinant Rap1b at 500 uM in presence of excess nonfluorescent nucleotides by fluorescence based in-vitro GEF assay
[14] = target: T1, Rap guanine nucleotide exchange factor 3 (Homo sapiens); experiment: Activation of EPAC1 in HUVEC assessed as reduction in IL-6-promoted signaling by measuring SELE protein expression at 100 uM pre-incubated for 30 mins before IL6 and sIL6Ralpha stimulation for 5 hrs by Western blotting analysis; format: cell-based
[15] = Activation of PKA in human U2OS cells stably transfected with EPAC1 assessed as increase in VASP phosphorylation at 100 uM by Western blot analysis; format: cell-based
[16] = target: T2, Rap guanine nucleotide exchange factor 3; experiment: Binding affinity to GST-tagged recombinant EPAC1 CNBD (169 to 318 residues) (unknown origin) expressed in Escherichia coli BL21 Star (DE3) incubated for 4 hrs by 8-NBD-cAMP competition binding assay
[17] = target: T1, Rap guanine nucleotide exchange factor 3 (Homo sapiens); experiment: Activity at EPAC1 in HUVEC assessed as promotion of IL-6-promoted signaling by measuring increased pAKT protein levels at 100 uM pre-incubated for 30 mins before IL6 and sIL6Ralpha stimulation for 5 hrs by Western blotting analysis; format: cell-based
[18] = target: T1, Rap guanine nucleotide exchange factor 3 (Homo sapiens); experiment: Activation of recombinant EPAC1 (149 to 881 residues) (unknown origin) assessed as stimulation of dissociation of fluorescent MANT-GDP from recombinant Rap1b up to 100 uM in presence of excess nonfluorescent nucleotides by fluorescence based in-vitro GEF assay relative to cAMP

Q: For `COc1ccc2ccc(OCC(=O)NS(=O)(=O)c3ccc(N)cc3OC)cc2c1`, which Activity [1] is on record?
A: The Activity was “inactive”.

Q: What about the Activity [2] of the same compound?
A: Its Activity is “inactive”.

Q: What about the Activity [3] of the same compound?
A: Its Activity is “inactive”.

Q: And the Activity [4]?
A: The Activity was 2%.

Q: What about the Activity [5] of the same compound?
A: The Activity was “Active”.

Q: What about the Activity [6] of the same compound?
A: Its Activity is “Active”.

Q: What about the Activity [7] of the same compound?
A: The Activity was “inactive”.

Q: What about the Activity [8] of the same compound?
A: Its Activity is “inactive”.

Q: And the pIC50 [9]?
A: Its pIC50 is 6.22.

Q: What about the pEC50 [10] of the same compound?
A: The pEC50 was 5.30.

Q: And the Activity [11]?
A: The Activity was 7%.

Q: And the Activity [12]?
A: The Activity was “Active”.

Q: What about the Activity [13] of the same compound?
A: The Activity was “Active”.

Q: And the Activity [14]?
A: The Activity was “inactive”.

Q: And the Activity [15]?
A: Its Activity is “Not Active”.

Q: With `Cc1ccc(S(=O)(=O)NC(=O)COc2ccc3ccccc3c2)c(C)c1` as the compound, how does the pIC50 [16] read?
A: Its pIC50 is 4.92 to 5.04.

Q: What about the Activity [2] of the same compound?
A: Its Activity is “Active”.

Q: And the Activity [5]?
A: Its Activity is “Active”.

Q: And the Activity [7]?
A: The Activity was “Active”.

Q: And the Activity [8]?
A: The Activity was “inactive”.

Q: What about the pIC50 [9] of the same compound?
A: Its pIC50 is 5.17.

Q: What about the Activity [11] of the same compound?
A: The Activity was 61%.

Q: What about the Activity [17] of the same compound?
A: The Activity was “Active”.

Q: With `COc1ccc2ccc(OCC(=O)NS(=O)(=O)c3ccc4ccccc4c3)cc2c1` as the compound, how does the Activity [18] read?
A: Its Activity is “Active”.

Q: What about the Activity [6] of the same compound?
A: Its Activity is “Active”.

Q: And the pIC50 [9]?
A: The pIC50 was 6.30.

Q: And the pEC50 [10]?
A: The pEC50 was 5.30.

Q: What about the Activity [11] of the same compound?
A: Its Activity is 14%.

Q: What about the Activity [12] of the same compound?
A: Its Activity is “Active”.

Q: And the Activity [15]?
A: The Activity was “Not Active”.

Q: With `Cc1cc(Nc2ncccc2C(F)(F)F)cc(S(=O)(=O)NC(=O)COc2ccc3ccccc3c2)c1` as the compound, how does the pIC50 [16] read?
A: The pIC50 was 5.34.

Q: And the Activity [2]?
A: Its Activity is “Active”.

Q: What about the Activity [3] of the same compound?
A: Its Activity is “inactive”.

Q: And the Activity [5]?
A: The Activity was “Active”.

Q: What about the Activity [7] of the same compound?
A: Its Activity is “Active”.

Q: And the Activity [8]?
A: The Activity was “inactive”.

Q: What about the Activity [11] of the same compound?
A: Its Activity is 56%.

Q: And the Activity [12]?
A: The Activity was “Active”.

Q: What about the Activity [14] of the same compound?
A: The Activity was “inactive”.

Q: And the Activity [15]?
A: The Activity was “Not Active”.

Q: What about the Activity [17] of the same compound?
A: The Activity was “Active”.

Reference: ChEMBL document CHEMBL4342525, “Synthesis and Biochemical Evaluation of Noncyclic Nucleotide Exchange Proteins Directly Activated by cAMP 1 (EPAC1) Regulators” (J Med Chem, 2020)
